According to US10582709B2, “Butyrolactones as herbicides” (FMC Corporation, priority 2015, dated 2020):

Test system: foxtail, giant (giant foxtail, Setaria faberii)
Test: Test A preemergence, giant foxtail
Format: in vivo
Conditions: 125 g ai/ha, visual rating after approx. 10 d, 0 to 100 scale, 0 no effect, 100 complete control
Description: (§1) Seeds of plant species selected from barnyardgrass (Echinochloa crus-galli), crabgrass (large crabgrass, Digitaria sanguinalis), kochia (Kochia scoparia), ragweed (common ragweed, Ambrosia elatior), morningglory (Ipomoea spp.), velvetleaf (Abutilon theophrasti), ryegrass, Italian (Italian ryegrass, Lolium multiflorum), foxtail, giant (giant foxtail, Setaria faberii), wheat (Triticum aestivum), corn (Zea mays), and pigweed (Amaranthus retroflexus), were planted into a blend of loam soil and sand and treated preemergence with a directed soil spray using test chemicals formulated in a non-phytotoxic solvent mixture which included a surfactant. At the same time, plants selected from these crop and weed species and also blackgrass (Alopecurus myosuroides), and galium (catchweed bedstraw, Galium aparine), were planted in pots containing the same blend of loam soil and sand and treated with postemergence applications of test chemicals formulated in the same manner. Plants ranged in height from 2 to 10 cm and were in the one- to two-leaf stage for the postemergence treatment. Treated plants and untreated controls were maintained in a greenhouse for approximately 10 d, after which time all treated plants were compared to untreated controls and visually evaluated for injury. Plant response ratings, summarized in Table A, are based on a 0 to 100 scale where 0 is no effect and 100 is complete control. A dash (-) response means no test result.

SMILES | Plant response rating, Foxtail, Giant
O=C(Nc1ccccc1C(F)(F)F)C1C(=O)OCC1c1ccc(F)c(C(F)(F)F)c1 (racemic) [Compound 17] | 20

Same assay, conditions: 500 g ai/ha, visual rating after approx. 10 d, 0 to 100 scale, 0 no effect, 100 complete control

SMILES | Plant response rating, Foxtail, Giant
O=C(Nc1ccccc1C(F)(F)F)C1C(=O)OCC1c1ccc(F)c(C(F)(F)F)c1 (racemic) [Compound 17] | 60

Test system: barnyardgrass (Echinochloa crus-galli)
Test: Test A preemergence, barnyardgrass
Format: in vivo
Conditions: 125 g ai/ha, visual rating after approx. 10 d, 0 to 100 scale, 0 no effect, 100 complete control
Description: as §1

SMILES | Plant response rating, Barnyardgrass
O=C(Nc1ccccc1C(F)(F)F)C1C(=O)OCC1c1ccc(F)c(C(F)(F)F)c1 (racemic) [Compound 17] | 0

Same assay, conditions: 500 g ai/ha, visual rating after approx. 10 d, 0 to 100 scale, 0 no effect, 100 complete control

SMILES | Plant response rating, Barnyardgrass
O=C(Nc1ccccc1C(F)(F)F)C1C(=O)OCC1c1ccc(F)c(C(F)(F)F)c1 (racemic) [Compound 17] | 0

Test system: rice (Oryza sativa)
Test: Test B flooded paddy test, rice
Format: in vivo
Conditions: 500 g ai/ha; applied to paddy water at 2-leaf stage; 13 to 15 d; scale 0 no effect to 100 complete control
Method: (§2) Plant species in the flooded paddy test selected from rice (Oryza sativa), sedge, umbrella (small-flower umbrella sedge, Cyperus difformis), ducksalad (Heteranthera limosa), and barnyardgrass (Echinochloa crus-galli) were grown to the 2-leaf stage for testing. At time of treatment, test pots were flooded to 3 cm above the soil surface, treated by application of test compounds directly to the paddy water, and then maintained at that water depth for the duration of the test. Treated plants and controls were maintained in a greenhouse for 13 to 15 d, after which time all species were compared to controls and visually evaluated. Plant response ratings, summarized in Table B, are based on a scale of 0 to 100 where 0 is no effect and 100 is complete control. A dash (-) response means no test result.

SMILES | Plant response rating, Flood, Rice
O=C(Nc1ccccc1C(F)(F)F)C1C(=O)OCC1c1ccc(F)c(C(F)(F)F)c1 (racemic) [Compound 17] | 0

Test system: ragweed (common ragweed, Ambrosia elatior)
Test: Test A preemergence, ragweed
Format: in vivo
Conditions: 125 g ai/ha, visual rating after approx. 10 d, 0 to 100 scale, 0 no effect, 100 complete control
Description: as §1

SMILES | Plant response rating, Ragweed
O=C(Nc1ccccc1C(F)(F)F)C1C(=O)OCC1c1ccc(F)c(C(F)(F)F)c1 (racemic) [Compound 17] | 0

Same assay, conditions: 500 g ai/ha, visual rating after approx. 10 d, 0 to 100 scale, 0 no effect, 100 complete control

SMILES | Plant response rating, Ragweed
O=C(Nc1ccccc1C(F)(F)F)C1C(=O)OCC1c1ccc(F)c(C(F)(F)F)c1 (racemic) [Compound 17] | 0

Test system: pigweed (Amaranthus retroflexus)
Test: Test A postemergence, pigweed
Format: in vivo
Conditions: 125 g ai/ha, visual rating after approx. 10 d, 0 to 100 scale, 0 no effect, 100 complete control
Description: as §1

SMILES | Plant response rating, Pigweed
O=C(Nc1ccccc1C(F)(F)F)C1C(=O)OCC1c1ccc(F)c(C(F)(F)F)c1 (racemic) [Compound 17] | 0

Same assay, conditions: 500 g ai/ha, visual rating after approx. 10 d, 0 to 100 scale, 0 no effect, 100 complete control

SMILES | Plant response rating, Pigweed
O=C(Nc1ccccc1C(F)(F)F)C1C(=O)OCC1c1ccc(F)c(C(F)(F)F)c1 (racemic) [Compound 17] | 0

Test system: blackgrass (Alopecurus myosuroides)
Test: Test A postemergence, blackgrass
Format: in vivo
Conditions: 125 g ai/ha, visual rating after approx. 10 d, 0 to 100 scale, 0 no effect, 100 complete control
Description: as §1

SMILES | Plant response rating, Blackgrass
O=C(Nc1ccccc1C(F)(F)F)C1C(=O)OCC1c1ccc(F)c(C(F)(F)F)c1 (racemic) [Compound 17] | 0

Same assay, conditions: 500 g ai/ha, visual rating after approx. 10 d, 0 to 100 scale, 0 no effect, 100 complete control

SMILES | Plant response rating, Blackgrass
O=C(Nc1ccccc1C(F)(F)F)C1C(=O)OCC1c1ccc(F)c(C(F)(F)F)c1 (racemic) [Compound 17] | 0

Test system: sedge, umbrella (small-flower umbrella sedge, Cyperus difformis)
Test: Test B flooded paddy test, umbrella sedge
Format: in vivo
Conditions: 500 g ai/ha; applied to paddy water at 2-leaf stage; 13 to 15 d; scale 0 no effect to 100 complete control
Method: as §2

SMILES | Plant response rating, Flood, Sedge, Umbrella
O=C(Nc1ccccc1C(F)(F)F)C1C(=O)OCC1c1ccc(F)c(C(F)(F)F)c1 (racemic) [Compound 17] | 0

Test system: ragweed (common ragweed, Ambrosia elatior)
Test: Test A postemergence, ragweed
Format: in vivo
Conditions: 125 g ai/ha, visual rating after approx. 10 d, 0 to 100 scale, 0 no effect, 100 complete control
Description: as §1

SMILES | Plant response rating, Ragweed
O=C(Nc1ccccc1C(F)(F)F)C1C(=O)OCC1c1ccc(F)c(C(F)(F)F)c1 (racemic) [Compound 17] | 0

Same assay, conditions: 500 g ai/ha, visual rating after approx. 10 d, 0 to 100 scale, 0 no effect, 100 complete control

SMILES | Plant response rating, Ragweed
O=C(Nc1ccccc1C(F)(F)F)C1C(=O)OCC1c1ccc(F)c(C(F)(F)F)c1 (racemic) [Compound 17] | 0

Test system: kochia (Kochia scoparia)
Test: Test A preemergence, kochia
Format: in vivo
Conditions: 125 g ai/ha, visual rating after approx. 10 d, 0 to 100 scale, 0 no effect, 100 complete control
Description: as §1

SMILES | Plant response rating, Kochia
O=C(Nc1ccccc1C(F)(F)F)C1C(=O)OCC1c1ccc(F)c(C(F)(F)F)c1 (racemic) [Compound 17] | 0

Same assay, conditions: 500 g ai/ha, visual rating after approx. 10 d, 0 to 100 scale, 0 no effect, 100 complete control

SMILES | Plant response rating, Kochia
O=C(Nc1ccccc1C(F)(F)F)C1C(=O)OCC1c1ccc(F)c(C(F)(F)F)c1 (racemic) [Compound 17] | 0

Test system: corn (Zea mays)
Test: Test A postemergence, corn
Format: in vivo
Conditions: 125 g ai/ha, visual rating after approx. 10 d, 0 to 100 scale, 0 no effect, 100 complete control
Description: as §1

SMILES | Plant response rating, Corn
O=C(Nc1ccccc1C(F)(F)F)C1C(=O)OCC1c1ccc(F)c(C(F)(F)F)c1 (racemic) [Compound 17] | 0

Same assay, conditions: 500 g ai/ha, visual rating after approx. 10 d, 0 to 100 scale, 0 no effect, 100 complete control

SMILES | Plant response rating, Corn
O=C(Nc1ccccc1C(F)(F)F)C1C(=O)OCC1c1ccc(F)c(C(F)(F)F)c1 (racemic) [Compound 17] | 0
